# Experimental data reported in paper PMC8217813, “Bridging Computational Vaccinology and Vaccine Development Through Systematic Identification, Characterization, and Downselection of Conserved and Variable Circumsporozoite Protein CD4 T Cell Epitopes From Diverse Plasmodium falciparum Strains” (Frontiers in Immunology, 2021).
# Peptide text beside a SMILES is read from it.
# Key:
# HLA-DRB1*0101 = target: T1, HLA-DRB1*0101 (Homo sapiens, UniProt P01903+P01911, A100R/D57E/F55L/F60I/F76Y/I96L/L162R/M171V/P40L/Q125E/R42F/V115G/Y59C); experiment: In vitro class II HLA binding competition assay; conditions: competition with fluorescent-labeled reference peptide, class II HLA monomers, 24-hours, test peptide 100,000 nM to 100 nM, time-resolved fluorescence
# T1 construct: purchased
# How it was run: (§1)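 Test peptides (final 100,000 nM to 100 nM, in DMSO) competed with a fluorescent high-binding reference peptide for limiting soluble class II HLA monomers in aqueous buffer over 24 h. Complexes were captured on anti-HLA-DR plates and read by europium time-resolved fluorescence; IC50 came from percent inhibition across the titration.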
# HLA-DRB1*0301 = HLA-DRB1*0301 (Homo sapiens, UniProt P01903+P01911, A100K/A102G/A103R/A169T/F55Y/I96L/K41T/L162R/M171V/P40S/Q125H/Q178H/Q39Y/R42S/S66N/T106N/T262R/W38E/Y61H); experiment: In vitro class II HLA binding competition assay; conditions: competition with fluorescent-labeled reference peptide, class II HLA monomers, 24-hours, test peptide 100,000 nM to 100 nM, time-resolved fluorescence
# How it was run: as §1
# HLA-DRB1*0401 = target: T2, HLA-DRB1*0401 (Homo sapiens, UniProt P01903+P01911, A100K/A169T/F76Y/I96L/K127E/L162R/M171V/N62H/P40V/Q125Y/R42H/S133A/S149N/S66Y/V115G/V209L/W38E); experiment: In vitro class II HLA binding competition assay
# T2 construct: purchased
# How it was run: as §1
# HLA-DRB1*0701 = HLA-DRB1*0701 (Homo sapiens, UniProt P01903+P01911, A100R/A102G/A103Q/D57E/D86V/E43K/F76Y/K127E/L162R/M171V/P40G/Q125H/Q99D/R33Q/R42Y/R54Q/S133A/S66F/T210M/V115G/Y107V/Y59L/Y89S); experiment: In vitro class II HLA binding competition assay
# How it was run: as §1
# HLA-DRB1*0801 = HLA-DRB1*0801 (Homo sapiens, UniProt P01903+P01911, A100R/A103L/A169T/D86S/F76Y/H45Y/I96F/K41T/L162R/M171V/P40S/Q125H/Q178H/Q39Y/Q99D/R218S/R42G/S66Y/V115G/W38E); experiment: In vitro class II HLA binding competition assay; conditions: competition with fluorescent-labeled reference peptide, class II HLA monomers, 24-hours, test peptide 100,000 nM to 100 nM, time-resolved fluorescence
# How it was run: as §1
# HLA-DRB1*1101 = target: T3, HLA-DRB1*1101 (Homo sapiens, UniProt P01903+P01911, A100R/A169T/A87E/I96F/K41T/L162R/M171V/P40S/Q125H/Q178H/Q39Y/Q99D/R42S/S66Y/T262R/V115G/W38E); experiment: In vitro class II HLA binding competition assay; conditions: competition with fluorescent-labeled reference peptide, class II HLA monomers, 24-hours, test peptide 100,000 nM to 100 nM, time-resolved fluorescence
# T3 construct: purchased
# How it was run: as §1
# HLA-DRB1*1301 = HLA-DRB1*1301 (Homo sapiens, UniProt P01903+P01911, A100E/A169T/K41T/L162R/M171V/P40S/Q125H/Q178H/Q39Y/Q99D/R42S/S66N/T262R/W38E/Y61H); experiment: In vitro class II HLA binding competition assay; conditions: competition with fluorescent-labeled reference peptide, class II HLA monomers, 24-hours, test peptide 100,000 nM to 100 nM, time-resolved fluorescence
# How it was run: as §1
# HLA-DRB1*1501 = target: T4, HLA-DRB1*1501 (Homo sapiens, UniProt P01903+P01911); experiment: In vitro class II HLA binding competition assay
# T4 construct: purchased
# How it was run: as §1
# [1] = test system: CD4 T cells co-cultured with autologous DCs from PBMCs; format: cell-based, human; conditions: positive = Stimulation Index ≥1.5-fold above baseline, 5 µg/mL peptide
structure (smiles),measurement,setting,value
CC[C@H](C)[C@H](NC(=O)[C@H](Cc1c[nH]cn1)NC(=O)[C@H](CCC(N)=O)NC(=O)[C@H](CC(=O)O)NC(C)=O)C(=O)N[C@@H](CCC(=O)O)C(=O)N[C@@H](CCCCN)C(=O)N[C@@H](Cc1ccc(O)cc1)C(=O)N[C@@H](CC(C)C)C(=O)N[C@@H](CCCCN)C(=O)N[C@H](C(=O)N[C@H](C(=O)N[C@@H](CCC(N)=O)C(=O)N[C@@H](CC(N)=O)C(=O)N[C@@H](CO)C(=O)N[C@@H](CC(C)C)C(=O)N[C@@H](CO)C(=O)N[C@H](C(=O)N[C@@H](CCC(=O)O)C(=O)N[C@@H](Cc1c[nH]c2ccccc12)C(=O)N[C@@H](CO)C(=O)N1CCC[C@H]1C(N)=O)[C@@H](C)O)[C@@H](C)CC)[C@@H](C)CC [ICS5] (Ac-DQHIEKYLKIIQNSLSTEWSP-NH2),IC50,HLA-DRB1*0101,0.218 µM
same,IC50,HLA-DRB1*0301,84.7 µM
same,IC50,HLA-DRB1*0401,0.035 µM
same,IC50,HLA-DRB1*0701,3.68 µM
same,IC50,HLA-DRB1*0801,23.1 µM
same,IC50,HLA-DRB1*1101,5.55 µM
same,IC50,HLA-DRB1*1301,19.8 µM
same,IC50,HLA-DRB1*1501,0.03 µM
same,"Percentage of donors demonstrating IFN-γ responses, DR1","[1]; DR1 donors N=5, ICCS after 14-day co-culture",80%
same,"Percentage of donors demonstrating IL-2 responses, DR1","[1]; DR1 donors N=5, ICCS",20%
same,"Percentage of donors demonstrating IL-4 responses, DR1","[1]; DR1 donors N=5, ICCS",0%
same,"Percentage of donors demonstrating IL-10 responses, DR1","[1]; DR1 donors N=5, ICCS",0%
same,"Percentage of donors demonstrating TNF-α responses, DR1","[1]; DR1 donors N=5, ICCS",40%
same,"Percentage of donors demonstrating IFN-γ responses, DR3","[1]; DR3 donors N=6, ICCS after 14-day co-culture",33%
same,"Percentage of donors demonstrating IL-2 responses, DR3","[1]; DR3 donors N=6, ICCS",0%
same,"Percentage of donors demonstrating IL-4 responses, DR3","[1]; DR3 donors N=6, ICCS",33%
same,"Percentage of donors demonstrating IL-10 responses, DR3","[1]; DR3 donors N=6, ICCS",17%
same,"Percentage of donors demonstrating TNF-α responses, DR3","[1]; DR3 donors N=6, ICCS",17%
same,"Percentage of donors demonstrating IFN-γ responses, DR4","[1]; DR4 donors N=10, ICCS after 14-day co-culture",60%
same,"Percentage of donors demonstrating IL-2 responses, DR4","[1]; DR4 donors N=10, ICCS",40%
same,"Percentage of donors demonstrating IL-4 responses, DR4","[1]; DR4 donors N=10, ICCS",0%
same,"Percentage of donors demonstrating IL-10 responses, DR4","[1]; DR4 donors N=10, ICCS",0%
same,"Percentage of donors demonstrating TNF-α responses, DR4","[1]; DR4 donors N=10, ICCS",40%
same,"Percentage of donors demonstrating IFN-γ responses, DR7","[1]; DR7 donors N=4, ICCS after 14-day co-culture",75%
same,"Percentage of donors demonstrating IL-2 responses, DR7","[1]; DR7 donors N=4, ICCS",25%
same,"Percentage of donors demonstrating IL-4 responses, DR7","[1]; DR7 donors N=4, ICCS",25%
same,"Percentage of donors demonstrating IL-10 responses, DR7","[1]; DR7 donors N=4, ICCS",0%
same,"Percentage of donors demonstrating TNF-α responses, DR7","[1]; DR7 donors N=4, ICCS",0%
same,"Percentage of donors demonstrating IFN-γ responses, DR8","[1]; DR8 donors N=4, ICCS after 14-day co-culture",25%
same,"Percentage of donors demonstrating IL-2 responses, DR8","[1]; DR8 donors N=4, ICCS",0%
same,"Percentage of donors demonstrating IL-4 responses, DR8","[1]; DR8 donors N=4, ICCS",0%
same,"Percentage of donors demonstrating IL-10 responses, DR8","[1]; DR8 donors N=4, ICCS",0%
same,"Percentage of donors demonstrating TNF-α responses, DR8","[1]; DR8 donors N=4, ICCS",75%
same,"Percentage of donors demonstrating IFN-γ responses, DR9","[1]; DR9 donors N=4, ICCS after 14-day co-culture",50%
same,"Percentage of donors demonstrating IL-2 responses, DR9","[1]; DR9 donors N=4, ICCS",25%
same,"Percentage of donors demonstrating IL-4 responses, DR9","[1]; DR9 donors N=4, ICCS",0%
same,"Percentage of donors demonstrating IL-10 responses, DR9","[1]; DR9 donors N=4, ICCS",25%
same,"Percentage of donors demonstrating TNF-α responses, DR9","[1]; DR9 donors N=4, ICCS",50%
same,"Percentage of donors demonstrating IFN-γ responses, DR11","[1]; DR11 donors N=4, ICCS after 14-day co-culture",100%
same,"Percentage of donors demonstrating IL-2 responses, DR11","[1]; DR11 donors N=4, ICCS",50%
same,"Percentage of donors demonstrating IL-4 responses, DR11","[1]; DR11 donors N=4, ICCS",0%
same,"Percentage of donors demonstrating IL-10 responses, DR11","[1]; DR11 donors N=4, ICCS",0%
same,"Percentage of donors demonstrating TNF-α responses, DR11","[1]; DR11 donors N=4, ICCS",75%
same,"Percentage of donors demonstrating IFN-γ responses, DR13","[1]; DR13 donors N=7, ICCS after 14-day co-culture",43%
same,"Percentage of donors demonstrating IL-2 responses, DR13","[1]; DR13 donors N=7, ICCS",14%
same,"Percentage of donors demonstrating IL-4 responses, DR13","[1]; DR13 donors N=7, ICCS",14%
same,"Percentage of donors demonstrating IL-10 responses, DR13","[1]; DR13 donors N=7, ICCS",0%
same,"Percentage of donors demonstrating TNF-α responses, DR13","[1]; DR13 donors N=7, ICCS",43%
same,"Percentage of donors demonstrating IFN-γ responses, DR15","[1]; DR15 donors N=7, ICCS after 14-day co-culture",43%
same,"Percentage of donors demonstrating IL-2 responses, DR15","[1]; DR15 donors N=7, ICCS",0%
same,"Percentage of donors demonstrating IL-4 responses, DR15","[1]; DR15 donors N=7, ICCS",0%
same,"Percentage of donors demonstrating IL-10 responses, DR15","[1]; DR15 donors N=7, ICCS",14%
same,"Percentage of donors demonstrating TNF-α responses, DR15","[1]; DR15 donors N=7, ICCS",29%
